Measurements taken from patent publication US20240262842A1, “SMALL MOLECULE INHIBITORS OF KRAS G12C MUTANT” (Merck Sharp & Dohme LLC, priority 2021, published 2024).
Read-outs that look alike come from different tables or passages of the source.

Assays:
[1] = molecular target: T1, interaction between GMPPNP-bound recombinant K-Ras4B G12C mutant protein and cRAF RAS-binding domain (cRAF-RBD) (Homo sapiens, UniProt P01116, G12C); assay: Inhibitory activity on interaction between KRAS G12C and cRAF (Alpha technology)
T1 construct: His-tag (N)
Experimental: Interaction between recombinant K-Ras4B G12C mutant protein (amino acids 1-169, SEQ ID NO:2) and cRAF RAS-binding domain (cRAF-RBD, amino acids 50-132, Jena Biosciences GmbH) was measured using Alpha technology (PerkinElmer Inc.).
Recombinant KRAS G12C protein with an N-terminal His-tag was expressed in E. coli and purified by affinity chromatography. To prepare GTP-bound form and GDP-bound form of KRAS G12C protein, 50 μM KRAS G12C protein was incubated with 1 mM GMPPNP (Guanosine-5′-[(β,γ)-imido]triphosphate, Tetralithium salt) (Jena Bioscience GmbH) and 1 mM GDP, respectively, in a loading buffer (20 mM Tris-HCl (pH 7.5), 50 mM NaCl, 1 mM DTT and 2.5 mM EDTA) for 1 hour on ice. After the incubation, MgCl2 was added to a final concentration of 10 mM, followed by incubation at room temperature for 30 minutes. The mixture was allowed to pass through a NAP-5 column to remove free nucleotides and purified, and the resultant nucleotide-bound KRAS G12C protein was used for compound evaluation.
For the measurement of the inhibitory activity of compounds on interaction between KRAS G12C and cRAF-RBD, GMPPNP-bound KRAS G12C protein was incubated with various concentrations of compound in a reaction buffer (20 mM Tris-HCl (pH 7.5), 100 mM NaCl, 1 mM MgCl2, 1 mM TCEP, 0.1% Tween 20) at 25° C. for 1 hour. After the incubation, recombinant cRAF-RBD and Alpha detection reagents were added and incubated at room temperature for 1.5 hours for binding. Interaction of KRAS G12C and cRAF-RBD was monitored by measuring Alpha signal. Inhibition % was calculated using the signal from the reaction without test compound (DMSO control) as 0% inhibition and the signal from the reaction using GDP-bound KRAS G12C in place of GMPPNP-bound KRAS G12C as 100% inhibition. IC50 values were calculated from dose titration curve using curve fitting by XLfit software (IDBS).

MIA PaCa-2 cells = assay: Growth inhibition activity on KRAS-G12C mutant cell line (CellTiter-Glo 3D); format: cell-based, human; conditions: MIA PaCa-2, 3-day culture with compound
Experimental: MIA PaCa-2 cells (given by Sumitomo Dainippon Pharma Co., Ltd.), which are a KRAS-G12C mutant human pancreas cancer cell line, were suspended in a 10% fetal bovine serum-containing RPMI1640 medium (manufactured by Fujifilm Wako Pure Chemical Corporation). The cell suspension was seeded into each well of a 384-well U bottom microplate and cultured in an incubator containing 5% CO2 gas at 37° C. for 1 day. The compounds obtained in the “Preparation of Compounds” section were used as test compounds and were dissolved in DMSO, respectively, and each test compound was diluted with DMSO to give a concentration 500 times the final concentration. The resultant solution of the test compound in DMSO was diluted with the medium used for suspending cells and added to each well of the cell-culture plate to give a DMSO final concentration of 0.2%, followed by culture in an incubator containing 5% CO2 gas at 37° C. for another 3 days. The cell count after 3-day culture in the presence of the test compound was measured using CellTiter-Glo 3D Reagent (manufactured by Promega Corporation). All wells were added with CellTiter-Glo 3D Reagent and mixed for 10 minutes. 30 minutes after mixing, luminescence was measured by a plate reader. The growth inhibition rate was calculated from the following equation, and the concentration of the test compound at which 50% inhibition was achieved (IC50 (nM)) was determined.
[formula] • T: the emission intensity in a well into which a test compound was added. • C: the emission intensity in a well into which a test compound was not added.

[2] = GMPPNP-bound KRAS G12C incubated with compound 25° C. 1 hour, Table 2-1, read-out: IC50
[3] = Homo sapiens, MIA PaCa-2, 72 h, Table 3-1
[4] = IC50, GMPPNP-bound KRAS G12C incubated with compound 25° C. 1 hour, Table 2-1
[5] = IC50, GMPPNP-bound KRAS G12C incubated with compound 25° C. 1 hour, Table 2
[6] = GMPPNP-bound KRAS G12C incubated with compound 25° C. 1 hour, Table 2, read-out: IC50

T1 sequence (P01116 with tags, fused parts or gaps isoform P01116-2 G12C): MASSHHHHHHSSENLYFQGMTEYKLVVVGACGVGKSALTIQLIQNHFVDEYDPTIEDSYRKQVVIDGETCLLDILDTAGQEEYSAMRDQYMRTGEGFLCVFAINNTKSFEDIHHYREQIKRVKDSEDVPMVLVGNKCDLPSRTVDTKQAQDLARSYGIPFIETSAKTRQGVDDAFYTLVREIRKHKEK

SMILES	IC50 [1, 2]	IC50 (MIA PaCa-2 cells; [3])	IC50 [1, 5]	IC50 (MIA PaCa-2 cells; Table 3)	other results
CN1CCc2cc(C(=O)c3cc(F)c(NC(=O)/C=C/CN[C@H]4CCOC4)c(F)c3)n3cccc(c23)-c2c(C(F)(F)F)cc3[nH]cnc3c21 (atropisomer, axis not shown) [Example 218]	27 nM	14.2 nM	–	–	–
CN1CCc2cc(C(=O)c3cc(F)c(NC(=O)/C=C/CNC4(C)CC4)c(F)c3)n3cccc(c23)-c2c(C(F)(F)F)cc3[nH]cnc3c21 (atropisomer, axis not shown) [Example 239, (E)-N-(2,6-difluoro-4-(12-methyl-7-(trifluorometh-yl)-9,12,13,14-tetrahydro-imidazo[4″,5″:5′,6′]benzo-[1′,2′:2,3]azocino[4,5,6-hi]indolizine-2-carbonyl)-phenyl)-4-((1-methyl-cyclopropyl)amino)but-2-enamide]	18.2 nM	9.69 nM	–	–	–
Cc1cc2c(nc(C)n2C)c2c1-c1cccc3c(C(=O)c4cc(F)c(NC(=O)/C=C/CN[C@H]5C[C@@H]6CC[C@H]5O6)c(F)c4)cn(c13)CCN2C (racemic) [Example 135]	–	28.9 nM	–	–	IC50 [1, 4]: 11 nM
Cc1cc2c(nc(C)n2C)c2c1-c1cccc3c(C(=O)c4cc(F)c(NC(=O)/C=C/CN5[C@@H]6CC[C@H]5[C@@H](O)C6)c(F)c4)cn(c13)CCN2C (racemic) [Example 142]	–	85.5 nM	–	–	IC50 [1, 4]: 28.1 nM
Cc1cc2c(nc(C)n2C)c2c1-c1cccc3c(C(=O)c4cc(F)c(NC(=O)/C=C/CN5[C@@H]6CC[C@H]5[C@H](O)C6)c(F)c4)cn(c13)CCN2C (racemic) [Example 144]	–	30.2 nM	–	–	IC50 [1, 4]: 22.4 nM
Cn1cnc2c3c(c(C(F)(F)F)cc21)-c1cccn2c(C(=O)c4cc(F)c(NC(=O)/C=C/CN5CC[C@H]6CC[C@H](O)[C@H]65)c(F)c4)cc(c12)CCO3 (racemic) [Example 163]	33.5 nM	42.7 nM	–	–	–
Cn1cnc2c3c(c(C(F)(F)F)cc21)-c1cccn2c(C(=O)c4cc(F)c(NC(=O)/C=C/CN5CC[C@H]6CC[C@@H](O)[C@H]65)c(F)c4)cc(c12)CCO3 (racemic) [Example 164]	21.5 nM	13.7 nM	–	–	–
Cn1cnc2c3c(c(C(F)(F)F)cc21)-c1cccn2c(C(=O)c4cc(F)c(NC(=O)/C=C/CN5[C@@H]6CC[C@H]5[C@@H](O)C6)c(F)c4)cc(c12)CCO3 (racemic) [Example 172]	10.4 nM	16.2 nM	–	–	–
Cn1cnc2c3c(c(C(F)(F)F)cc21)-c1cccn2c(C(=O)c4cc(F)c(NC(=O)/C=C/CN5[C@@H]6CC[C@H]5[C@H](O)C6)c(F)c4)cc(c12)CCO3 (racemic) [Example 173]	7.02 nM	10.6 nM	–	–	–
Cn1cnc2c3c(c(C(F)(F)F)cc21)-c1cccn2c(C(=O)c4cc(F)c(NC(=O)/C=C/CN5C[C@@H]6COC[C@H]6C5)c(F)c4)cc(c12)CCO3 (racemic) [Example 248]	18 nM	21.8 nM	–	–	–
CO[C@H]1CC[C@H](NC/C=C/C(=O)Nc2c(F)cc(C(=O)c3cn4c5c(cccc35)-c3c(Cl)cccc3OCC4)cc2F)CC1 (single isomer, unassigned) [Example 1-1]	–	–	> 6700 nM	7700 nM	–
CO[C@H]1CC[C@H](NC/C=C/C(=O)Nc2c(F)cc(C(=O)c3cn4c5c(cccc35)-c3c(Cl)cccc3OCC4)cc2F)CC1 (single isomer, unassigned) [Example 1-2]	–	–	180 nM	160 nM	–
CC(C)(C)NC/C=C/C(=O)Nc1c(F)cc(C(=O)c2cn3c4c(cccc24)-c2c(Cl)cccc2OCCC3)cc1F (single isomer, unassigned) [Example 2-1, (E)-4-(tert-butylamino)-N-(4-(11-chloro-5,6-dihydro-4H-benzo[8,9][1,5]oxazonino[7,6,5-hi]indole-1-carbonyl)-2,6-difluorophenyl)but-2-enamide]	–	–	> 6700 nM	3100 nM	–
CC(C)(C)NC/C=C/C(=O)Nc1c(F)cc(C(=O)c2cn3c4c(cccc24)-c2c(Cl)cccc2OCCC3)cc1F (single isomer, unassigned) [Example 2-2, (E)-4-(tert-butylamino)-N-(4-(11-chloro-5,6-dihydro-4H-benzo[8,9][1,5]oxazonino[7,6,5-hi]indole-1-carbonyl)-2,6-difluorophenyl)but-2-enamide]	–	–	500 nM	390 nM	–
CO[C@H]1CC[C@H](NC/C=C/C(=O)Nc2c(F)cc(C(=O)c3cn4c5c(cccc35)-c3c(Cl)cccc3OCCC4)cc2F)CC1 (single isomer, unassigned) [Example 4-1, (E)-N-(4-(11-chloro-5,6-dihydro-4H-benzo[8,9][1,5]oxazonino[7,6,5-hi]indole-1-carbonyl)-2,6-difluorophenyl)-4-(((1,4r)-4-methoxycyclohexyl)amino)but-2-enamide]	–	–	> 6700 nM	3600 nM	–
CO[C@H]1CC[C@H](NC/C=C/C(=O)Nc2c(F)cc(C(=O)c3cn4c5c(cccc35)-c3c(Cl)cccc3OCCC4)cc2F)CC1 (single isomer, unassigned) [Example 4-2, (E)-N-(4-(11-chloro-5,6-dihydro-4H-benzo[8,9][1,5]oxazonino[7,6,5-hi]indole-1-carbonyl)-2,6-difluorophenyl)-4-(((1,4r)-4-methoxycyclohexyl)amino)but-2-enamide]	–	–	290 nM	260 nM	–
CO[C@H]1CC[C@H](NC/C=C/C(=O)Nc2c(F)cc(C(=O)c3cn4c5c(cccc35)-c3c(cc(N5CCCC5=O)cc3C(F)(F)F)OCC4)cc2F)CC1 (single isomer, unassigned) [Example 5-1, (E)-N-(2,6-difluoro-4-(8-(2-oxopyrrolidin-1-yl)-10-(trifluoromethyl)-4,5-dihydrobenzo[7,8][1.4]oxazocino[6,5,4-hi]indole-1-carbonyl)phenyl)-4-(((1r,4t)-4-methoxycyclohexyl)amino)but-2-enamide]	–	–	53 nM	14 nM	–
CO[C@H]1CC[C@H](NC/C=C/C(=O)Nc2c(F)cc(C(=O)c3cn4c5c(cccc35)-c3c(cc(N5CCCC5=O)cc3C(F)(F)F)OCC4)cc2F)CC1 (single isomer, unassigned) [Example 5-2, (E)-N-(2,6-difluoro-4-(8-(2-oxopyrrolidin-1-yl)-10-(trifluoromethyl)-4,5-dihydrobenzo[7,8][1.4]oxazocino[6,5,4-hi]indole-1-carbonyl)phenyl)-4-(((1r,4t)-4-methoxycyclohexyl)amino)but-2-enamide]	–	–	> 6700 nM	1800 nM	–
C=C1Cc2cc(C(=O)c3cc(F)c(NC(=O)/C=C/CN[C@H]4CC[C@H](OC)CC4)c(F)c3)n3cccc(c23)-c2c(C)cc3c(nc(C)n3C)c21 [Example 48, (E)-N-(2,6-difluoro-4-(2,3,5-trimethyl-13-methylene-12,13-dihydro-3H-imidazo[4″,5″:5′,6′]benzo[1′,2′:6,7]cyclohepta[1,2,3-hi]indolizine-10-carbonyl)phenyl)-4-(((1r,4r)-4-methoxycyclohexyl)amino)but-2-enamide]	–	–	–	–	IC50 [1, 6]: 93 nM
Cc1nc2c3c(c(C(F)(F)F)cc2n1C)-c1cccn2c(C(=O)c4cc(F)c(NC(=O)/C=C/CNC5(CF)COC5)c(F)c4)cc(c12)CCO3 [Example 50, (E)-N-(4-(9,10-dimethyl-7-(trifluoromethyl)-13,14-dihydro-9H-imidazo[4″,5″:5′,6′]benzo[1′,2′:2,3]oxocino[4,5,6-hi]indolizine-2-carbonyl)-2,6-difluorophenyl)-4-((3-(fluoromethyl)oxetan-3-yl)amino)but-2-enamide]	–	–	–	–	IC50 [1, 6]: 780 nM
